Values of other authors as cited in patent EP4420767A1, “MODULAR GREEN SOLVENT COMPOSITION FOR PREPARING POLYMERIC MEMBRANES” (Soft Chemicals S.r.l., priority 2023, dated 2024).

Details: DMSO alone

- freezing point: 18 °C
Compound: C[S+](C)[O-] [DMSO, Dimethyl sulfoxide]
